pIC50: −log10 of the molar value. Read-outs that look alike come from different tables or passages of the source.

One experiment deals with A673 cells. Briefly: Inhibition of proliferation of A673 cells (CyQUANT, 72 hour). Format: cell-based, human. The conditions noted are these: A673 cells, 72 hour, CyQUANT; read-out: Inhibition of Proliferation of A673 Cells (calculated IC50). Put shortly:
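Human Ewing's sarcoma A673 cells in DMEM with 10% FBS and 1 mM sodium pyruvate, 37° C, 5% CO2, treated 72 h with compound from 4 μM to […] (0.5 log dilutions). Antiproliferative effect read by CyQUANT assay.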

Experiment [1] has as its target T1, CDK12 (aa686-1082)/Cyclin K complex (Homo sapiens, UniProt Q9NYV4).
T1 construct: CDK12 (aa686-1082)/Cyclin K complex
The experiment is described as follows: CDK12 inhibition assay (Caliper/LabChip EZ Reader kinase assay). The note with it: Table 1, CDK12 (aa686-1082)/Cyclin K 50 nM, ATP 2 mM, 3 hr at 27° C. Format: biochemical.

Experiment [2] concerns the target CDK7/Cyclin H/MAT1 complex (Homo sapiens, UniProt P50613). Briefly: CDK7 inhibition assay (Caliper/LabChip EZ Reader kinase assay). Format: biochemical. The conditions noted are these: Table 1, CDK7/Cyclin H/MAT1 6 nM, ATP 2 mM, 35 min at 27° C. Put shortly:
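A Perkin Elmer Caliper/LabChip EZ Reader (Waltham, MA) platform served as the basis for this CDK7 kinase inhibition assay. The work was carried out by Biortus Biosciences, located in Jiangyin, Jiangsu Province, P.R. of China. Each CDK studied had its own kinase assay, and compounds were evaluated for their ability to block CDK7 activity.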

The target in another experiment is CDK2/Cyclin E1 complex (Homo sapiens, UniProt P24941). Briefly: CDK2 inhibition assay (Caliper/LabChip EZ Reader kinase assay). In kind it is biochemical. The note with it: Table 1, CDK2/Cyclin E1 0.5 nM, ATP 2 mM, 35 min at 27° C. Put shortly:
(§1)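 Caliper/LabChip EZ Reader mobility-shift assays. CDK9/Cyclin T1 at 8 nM with 2 μM 5-FAM-CDK9tide peptide and 10 mM MgCl2; CDK2/Cyclin E1 at 0.5 nM with 2 μM 5-FAM-CDK7tide and 2 mM MgCl2.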

In a further experiment the test system is HCC70 cells. Briefly: Inhibition of proliferation of HCC70 cells (CyQUANT Direct Cell Proliferation Assay, 72 hour). In kind it is cell-based, human. Summed up:
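Human triple-negative breast cancer HCC70 cells cultured at 37° C, 5% CO2, with compound for 72 hour. Anti-proliferative effect read by CyQUANT Direct Cell Proliferation Assay. Dinaciclib, a CDK inhibitor analog and triptolide served as positive controls.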

A further experiment addresses CDK9/Cyclin T1 complex (Homo sapiens, UniProt P50750). The experiment is described as follows: CDK9 inhibition assay (Caliper/LabChip EZ Reader kinase assay). In kind it is biochemical. The conditions noted are these: Table 1, CDK9/Cyclin T1 8 nM, ATP 2 mM, 15 min at 27° C. Put shortly: as §1
The mark [3] stands for this setting: Homo sapiens, HCC70, 72 h, read-out: Inhibition of Proliferation of HCC70 Cells (calculated IC50).

CDK7/Cyclin H/MAT1 complex, sequence (P50613 whole entry, species assumed): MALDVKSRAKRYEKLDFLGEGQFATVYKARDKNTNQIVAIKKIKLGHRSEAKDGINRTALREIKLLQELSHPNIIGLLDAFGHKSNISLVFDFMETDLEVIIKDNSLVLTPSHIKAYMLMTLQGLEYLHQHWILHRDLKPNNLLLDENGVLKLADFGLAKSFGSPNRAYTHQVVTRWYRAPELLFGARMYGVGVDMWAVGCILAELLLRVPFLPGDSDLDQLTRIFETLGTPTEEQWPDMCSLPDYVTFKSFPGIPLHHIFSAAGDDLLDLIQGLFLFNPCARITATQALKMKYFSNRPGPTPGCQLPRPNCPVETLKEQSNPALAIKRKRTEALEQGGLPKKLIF
CDK7/Cyclin H/MAT1 complex, sequence (P51946 whole entry partner, species assumed): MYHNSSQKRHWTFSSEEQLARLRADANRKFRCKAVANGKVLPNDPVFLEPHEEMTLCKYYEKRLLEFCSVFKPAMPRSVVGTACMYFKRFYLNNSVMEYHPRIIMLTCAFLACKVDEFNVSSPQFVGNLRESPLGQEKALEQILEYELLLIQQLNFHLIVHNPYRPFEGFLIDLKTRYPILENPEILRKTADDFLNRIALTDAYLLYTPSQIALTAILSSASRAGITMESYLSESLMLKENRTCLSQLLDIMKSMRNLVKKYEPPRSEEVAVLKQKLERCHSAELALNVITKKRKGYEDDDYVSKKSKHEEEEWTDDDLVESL
CDK7/Cyclin H/MAT1 complex, sequence (P51948 whole entry partner, species assumed): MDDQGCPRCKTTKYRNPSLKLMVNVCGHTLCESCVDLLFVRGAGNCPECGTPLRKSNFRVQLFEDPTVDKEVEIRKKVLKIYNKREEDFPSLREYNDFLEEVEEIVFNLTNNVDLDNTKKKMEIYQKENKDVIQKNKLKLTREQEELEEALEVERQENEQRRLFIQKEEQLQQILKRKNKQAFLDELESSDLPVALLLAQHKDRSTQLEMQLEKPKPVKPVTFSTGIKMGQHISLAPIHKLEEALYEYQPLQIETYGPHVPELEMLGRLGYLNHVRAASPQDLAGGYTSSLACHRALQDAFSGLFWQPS
CDK9/Cyclin T1 complex, sequence (P50750 whole entry, species assumed): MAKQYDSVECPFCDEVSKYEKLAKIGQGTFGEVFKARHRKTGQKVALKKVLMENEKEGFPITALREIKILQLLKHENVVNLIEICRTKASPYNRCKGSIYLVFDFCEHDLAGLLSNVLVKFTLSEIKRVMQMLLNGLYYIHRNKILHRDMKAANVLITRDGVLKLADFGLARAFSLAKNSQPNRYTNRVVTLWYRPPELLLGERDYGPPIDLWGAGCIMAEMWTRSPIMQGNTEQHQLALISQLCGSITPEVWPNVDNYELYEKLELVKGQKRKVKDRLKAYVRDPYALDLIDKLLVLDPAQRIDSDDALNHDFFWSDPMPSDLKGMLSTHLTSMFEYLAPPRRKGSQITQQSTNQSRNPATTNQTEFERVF
CDK9/Cyclin T1 complex, sequence (O60563 whole entry partner, species assumed): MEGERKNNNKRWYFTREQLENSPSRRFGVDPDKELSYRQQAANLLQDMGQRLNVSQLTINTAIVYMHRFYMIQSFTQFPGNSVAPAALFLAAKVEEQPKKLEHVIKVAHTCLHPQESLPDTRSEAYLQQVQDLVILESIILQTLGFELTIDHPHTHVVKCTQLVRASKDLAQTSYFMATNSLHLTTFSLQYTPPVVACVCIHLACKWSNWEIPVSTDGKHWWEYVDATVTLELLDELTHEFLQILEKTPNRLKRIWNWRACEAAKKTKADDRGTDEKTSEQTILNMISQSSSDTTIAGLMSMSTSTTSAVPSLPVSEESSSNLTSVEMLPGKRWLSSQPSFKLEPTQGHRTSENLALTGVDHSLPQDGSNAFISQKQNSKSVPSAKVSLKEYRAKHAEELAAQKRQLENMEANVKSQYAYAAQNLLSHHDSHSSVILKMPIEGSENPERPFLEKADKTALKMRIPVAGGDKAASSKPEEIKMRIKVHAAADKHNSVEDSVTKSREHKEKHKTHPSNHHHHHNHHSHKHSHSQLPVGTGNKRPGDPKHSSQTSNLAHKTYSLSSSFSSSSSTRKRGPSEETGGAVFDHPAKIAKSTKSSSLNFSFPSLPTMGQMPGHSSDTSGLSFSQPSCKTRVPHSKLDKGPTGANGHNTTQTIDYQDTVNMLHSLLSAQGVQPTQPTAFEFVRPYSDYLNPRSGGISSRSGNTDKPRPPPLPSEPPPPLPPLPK
T1 sequence (Q9NYV4 686-1082, species assumed): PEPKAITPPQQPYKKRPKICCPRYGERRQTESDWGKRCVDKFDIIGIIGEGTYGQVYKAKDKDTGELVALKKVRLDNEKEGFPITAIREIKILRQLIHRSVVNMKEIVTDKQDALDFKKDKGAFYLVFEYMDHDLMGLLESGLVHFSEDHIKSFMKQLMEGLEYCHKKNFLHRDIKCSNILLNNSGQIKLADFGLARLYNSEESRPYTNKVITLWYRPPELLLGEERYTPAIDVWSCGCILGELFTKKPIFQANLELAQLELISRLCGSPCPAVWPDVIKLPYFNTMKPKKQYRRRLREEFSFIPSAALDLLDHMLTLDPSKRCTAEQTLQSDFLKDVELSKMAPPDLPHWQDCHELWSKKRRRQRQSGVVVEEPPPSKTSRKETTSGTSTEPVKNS
T1 sequence (O75909 whole entry partner, species assumed, the tested form may be a part): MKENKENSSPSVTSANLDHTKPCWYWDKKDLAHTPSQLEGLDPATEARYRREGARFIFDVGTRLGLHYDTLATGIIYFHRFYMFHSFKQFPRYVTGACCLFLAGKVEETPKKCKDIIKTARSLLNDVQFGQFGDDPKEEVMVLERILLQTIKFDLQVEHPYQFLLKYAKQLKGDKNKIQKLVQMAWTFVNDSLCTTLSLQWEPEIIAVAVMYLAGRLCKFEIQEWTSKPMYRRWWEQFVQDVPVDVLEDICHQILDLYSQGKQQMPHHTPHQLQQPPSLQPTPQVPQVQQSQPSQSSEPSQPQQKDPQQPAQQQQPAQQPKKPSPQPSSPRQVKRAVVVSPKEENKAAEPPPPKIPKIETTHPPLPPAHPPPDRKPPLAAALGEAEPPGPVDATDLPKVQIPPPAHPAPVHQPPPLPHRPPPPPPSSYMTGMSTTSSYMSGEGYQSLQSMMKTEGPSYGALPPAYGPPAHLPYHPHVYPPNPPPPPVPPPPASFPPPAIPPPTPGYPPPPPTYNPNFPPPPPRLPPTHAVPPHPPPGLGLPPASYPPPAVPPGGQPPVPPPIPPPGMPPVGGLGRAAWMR

For `O=c1[nH]cc(-c2ccc3c(-c4nc(N[C@H]5CCCNC5)ncc4C(F)(F)F)c[nH]c3c2)c(=O)[nH]1` [Compound 333, 5-[3-[2-[[(3S)-3-piperidyl]amino]-5-(trifluoromethyl)pyrimidin-4-yl]-1H-indol-6-yl]-1H-pyrimidine-2,4-dione], the pIC50 was 5.30 to 6.70 with A673 cells; 5.30 to 6.70 in experiment [1]; < 5.30 in experiment [1] (listed as 139); > 7.70 in experiment [2]; 6.70 to 7.70 in experiment [2] (listed as 139); < 5.30 at CDK2/Cyclin E1 complex. Moreover, the pIC50 was < 5.30 at CDK2/Cyclin E1 complex (listed as 139), 5.30 to 6.00 in the experiment with HCC70 cells (setting [3]), < 5.30 at CDK9/Cyclin T1 complex and < 5.30 on CDK9/Cyclin T1 complex (listed as 139).

Consider `O=C(c1cccc(-c2ccc3c(-c4nc(N[C@H]5CCCNC5)ncc4C(F)(F)F)c[nH]c3c2)c1)N1CCCC1` [Compound 340, [3-[3-[2-[[(3S)-3-piperidyl]amino]-5-(trifluoromethyl)pyrimidin-4-yl]-1H-indol-6-yl]phenyl]-pyrrolidin-1-yl-methanone], for which the pIC50 is 5.30 to 6.70 in the experiment with A673 cells; 5.30 to 6.70 in experiment [1]; < 5.30 in experiment [1] (listed as 140); 6.70 to 7.70 in experiment [2]; 5.30 to 6.70 at CDK2/Cyclin E1 complex; < 5.30 at CDK2/Cyclin E1 complex (listed as 140). The results for the pIC50 in the experiment on HCC70 cells (setting [3]), on CDK9/Cyclin T1 complex and at CDK9/Cyclin T1 complex (listed as 140) were 5.30 to 6.00, 5.30 to 6.70 and < 5.30, respectively.

Consider `FC(F)(F)c1cnc(N[C@H]2CCCNC2)nc1-c1c[nH]c2cc(-c3cccc(Oc4ccccc4)c3)ccc12` [Compound 341, 4-[6-(3-phenoxyphenyl)-1H-indol-3-yl]-N-[(3S)-3-piperidyl]-5 (trifluoromethyl) pyrimidin-2-amine], for which the pIC50 is > 7.70 with A673 cells; < 5.30 in experiment [1]; 5.30 to 6.70 in experiment [1] (listed as 141); 5.30 to 6.70 in experiment [2]; > 7.70 in experiment [2] (listed as 141); < 5.30 against CDK2/Cyclin E1 complex. Moreover, the pIC50 was 5.30 to 6.70 against CDK2/Cyclin E1 complex (listed as 141); 5.30 to 6.00 with HCC70 cells (setting [3]); > 7.00 in the experiment on HCC70 cells (listed as 141, read-out: Inhibition of Proliferation of HCC70 Cells (calculated IC50)); < 5.30 against CDK9/Cyclin T1 complex; 5.30 to 6.70 at CDK9/Cyclin T1 complex (listed as 141).

For the compound `O=S1(=O)CCn2cc(-c3nc(N[C@H]4CCCNC4)ncc3C(F)(F)F)c3cccc1c32` [Compound 348, (S)-6-(2-(piperidin-3-ylamino)-5-(trifluoromethyl)pyrimidin-4-yl)-2,3-dihydro-[1,4]thiazino[2,3,4-hi]indole 1,1-dioxide], the pIC50 is 6.70 to 7.70 in the experiment with A673 cells; < 5.30 in experiment [1]; 5.30 to 6.70 in experiment [1] (listed as 117); 6.70 to 7.70 in experiment [2]; 6.70 to 7.70 in experiment [2] (listed as 117); < 5.30 at CDK2/Cyclin E1 complex. Also, the pIC50 was 5.30 to 6.70 on CDK2/Cyclin E1 complex (listed as 117), 6.00 to 7.00 in the experiment with HCC70 cells (setting [3]), < 5.30 at CDK9/Cyclin T1 complex and 5.30 to 6.70 against CDK9/Cyclin T1 complex (listed as 117).

With `CCN1C[C@@H](Nc2ncc(C(F)(F)F)c(-c3c[nH]c4cc(S(C)(=O)=O)ccc34)n2)CC(C)(C)C1` [Compound 369, N-[(3S)-1-ethyl-5,5-dimethyl-3-piperidyl]-4-(6-methylsulfonyl-1H-indol-3-yl)-5-(trifluoromethyl)pyrimidin-2-amine], the pIC50 in the experiment on A673 cells is 6.70 to 7.70; in experiment [1], < 5.30; in experiment [1] (listed as 129), 5.30 to 6.70; in experiment [2], 6.70 to 7.70; in experiment [2] (listed as 129), 6.70 to 7.70; against CDK2/Cyclin E1 complex, < 5.30. In addition, the results for the pIC50 with HCC70 cells (setting [3]) and at CDK9/Cyclin T1 complex were 6.00 to 7.00 and < 5.30, respectively.

`N#Cc1ccc2c(-c3nc(N[C@@H]4CNC[C@H](O)C4)ncc3C(F)(F)F)c[nH]c2c1` [Compound 370, 3-[2-[[(3S,5R)-5-hydroxy-3-piperidyl]amino]-5-(trifluoromethyl)pyrimidin-4-yl]-1H-indole-6-carbonitrile]: the pIC50 with A673 cells was 5.30 to 6.70; in experiment [1] it was 5.30 to 6.70; in experiment [1] (listed as 130), < 5.30; in experiment [2] it was 6.70 to 7.70; in experiment [2] (listed as 130) it was < 5.30; at CDK2/Cyclin E1 complex, < 5.30. For the same compound, the pIC50 was 6.00 to 7.00 with HCC70 cells (setting [3]) and < 5.30 on CDK9/Cyclin T1 complex.

Values taken from patent publication US20240360165A1, “INHIBITORS OF CYCLIN DEPENDENT KINASE 7 (CDK7)” (Syros Pharmaceuticals, Inc., priority 2016, published 2024).
